Laboratory results taken from patent publication US12064577B2, “Drug-coated balloon” (Intersect ENT, Inc., priority 2015, dated 2024).
Where two headings read alike, the source gives them in different places.

Assays:
[1] = Drug uptake into sinus tissue after drug coated balloon delivery, ovine model (HPLC of tissue samples); assay type: in vivo; conditions: other: drug coated balloon expanded in the maxillary sinus, sheep, Example 3 balloon (solvent vapor annealed coating) expanded 5 minutes in maxillary sinus, tissue sampled after 7 days
Protocol: (§1) A 30 mm 80A Pellethane® compliant balloon was cleaned with 70% isopropanol and dried in an oven. The balloon was then treated with oxygen plasma and immediately spray coated with a mometasone furoate formulation listed in Table 1. Post-spray pass drying was conducted with nitrogen gas. Next, the drug coated balloon was treated by solvent vapor annealing (i.e., exposed to a solvent vapor) in a sealed chamber saturated with ethanol for four hours at room temperature. After solvent vapor annealing, the balloon was re-folded and heat set using a custom pleating machine. The coated balloon was then sheathed and packaged under nitrogen gas and sterilized by electron beam irradiation.
(§2) A drug coated balloon made using the process described in Example 3 was advanced to a sheep maxillary sinus using a rigid 4 mm endoscope and expanded for 5 minutes, and then deflated and removed from the nostril. After 7 days the animal was sacrificed and tissue samples obtained from the maxillary sinus and surrounding tissues. […] Plasma concentration of mometasone furoate was also measured over 7 days. Referring to Table 3 below and FIG. 3, mometasone furoate (MF) plasma concentration was low and found to decrease over the 7 day period from an initially low value. […] Low systemic exposure generally lowers the risk of a patient experiencing side effects from the delivered drug.

[2] = Plasma concentration of mometasone furoate after drug coated balloon delivery to ovine maxillary sinus; assay type: in vivo; conditions: other: drug coated balloon expanded in the maxillary sinus, sheep, read-out: MF Plasma Concentration
Protocol: as §1, §2

concentration at 7 days ([1]; read-out: mometasone furoate concentration in maxillary sinus tissue): 146 ng/g
concentration at 7 days ([1]; tissues surrounding the maxillary sinus, read-out: mometasone furoate concentration in tissues surrounding the maxillary sinus): 55 ng/g
concentration at 0 day ([2]; day 0 after Example 3 balloon delivery to maxillary sinus): 0.3 ng/mL
concentration at 1 day ([2]; day 1 after Example 3 balloon delivery to maxillary sinus): 0.3 ng/mL
concentration at 4 day ([2]; day 4 after Example 3 balloon delivery to maxillary sinus): 0.05 ng/mL
concentration at 7 day ([2]; day 7 after Example 3 balloon delivery to maxillary sinus): < 0.01 ng/mL
Structure (SMILES): C[C@@H]1C[C@H]2[C@@H]3CCC4=CC(=O)C=C[C@]4(C)[C@@]3(Cl)[C@@H](O)C[C@]2(C)[C@@]1(OC(=O)c1ccco1)C(=O)CCl [mometasone furoate]
